The series deals with blood barrier of rabbit brain. In words: Detection of liposomes in the brain and spinal cord by confocal microscopy after intravenous injection (Example 1). Format: in vivo, New Zealand White male rabbits. The note with it: rabbits, 1.5 ml/kg intravenous, one and four hours following administration. How it is done:
A particular liposome formulation was tested for crossing the blood barrier of rabbit brain.
The rabbits were perfused with 200-250 ml PBS prior to spinal cord excision (post the border of the medulla oblongata (between C1 to C2)) and brain removal as shown in FIG. 1 (frontal neocortex (frontal part), corpus callosum, hippocampus and mid brain)). The brains and spinal cords were harvested and fixed (3.7% formalin/PBS) for 10 minutes (37% formalin diluted with PBS 1:10, to a final concentration of 3.7%). The fixed brains and spinal cords were embedded in OCT compound, placed into plastic molds and frozen at −70° C. 8-10 μm tissue slices were cut using a cryotome at −20° C. and fixed on slides after which they were rinsed with PBS for 5 minutes. Finally, slides were mounted using mounting solution (80% glycerol/20% PBS) and sealed with nail polish. Slides were analyzed using confocal microscopy.

Take `O=S(=O)(O)c1cc(O)c2ccc3c(S(=O)(=O)O)cc(S(=O)(=O)O)c4ccc1c2c34` [1-Hydroxypyren-3,6,8-Trisulfonic acid]: the “detection of fluorescent marker in spinal cord and brain tissue” value is on record as “can be detected”.
For Rhodamin-DSPE, the “detection of fluorescent marker in spinal cord and brain tissue” value is on record as “can be detected”.

These data come from patent US10722463B2, “Compositions and methods using same for delivering agents into a target organ protected by a blood barrier” (Zuli Holdings Ltd., priority 2005, dated 2020).
